The values below come from the Deep4Chem optical property database.

Molecules are shown by their SMILES.

A short description of one data set: solvent given as SMILES. The following applies: in C1CCCCC1.
As for `COC1=[N+]2C(=C(c3ccc(C)cc3)c3ccc(OC)n3[B-]2(F)F)C=C1`, the emission maximum was determined as 525 nm.
The compound `CCN(CC)c1ccc(-c2nc3c(nc2-c2ccc(B(c4c(C)cc(C)cc4C)c4c(C)cc(C)cc4C)cc2)c2ccccc2n3C)cc1` gave an emission maximum of 462 nm.

The same data set, now with this note: in C1CCOC1.
`COc1cc(OC)cc(C2=C3C(C)=C(I)C(/C=C/c4c[nH]c5ccccc45)=[N+]3[B-](F)(F)n3c(/C=C/c4c[nH]c5ccccc45)c(I)c(C)c32)c1`: the emission maximum is given as 748 nm.
On the same count and under the same terms, then `COc1cc(OC)cc(C2=C3C(C)=C(I)C(/C=C/c4c[nH]c5ccc([N+](=O)[O-])cc45)=[N+]3[B-](F)(F)n3c(/C=C/c4c[nH]c5ccc([N+](=O)[O-])cc45)c(I)c(C)c32)c1`, with 720 nm; and `COc1cc2c(cc1-c1ccc(N(C)C)cc1)Cc1c3c(c4c(c1-2)-c1cc(OC)c(-c2ccc(N(C)C)cc2)cc1C4)C(=O)N(CCC(C)C)C3=O`, with 593 nm; and `C(=C\c1cccc(/C=C/c2c3ccccc3cc3ccccc23)c1)/c1ccncc1`, with 475 nm.
`F[B-]1(F)n2cccc2C=C2c3ccccc3C(c3ccc[nH]3)=[N+]21` showed an emission maximum of 596 nm.
Same read-out and setting: in the case of `CC1=N/C(=C\c2ccc(C#N)c(N(C)C)c2)C(=O)N1C` it was 568 nm; in that of `COC1=[N+]2C(=C(c3ccc(C)cc3)c3ccc(OC)n3[B-]2(F)F)C=C1`, 528 nm; in that of `CCN(CC)c1ccc(-c2nc3c(nc2-c2ccc(B(c4c(C)cc(C)cc4C)c4c(C)cc(C)cc4C)cc2)c2ccccc2n3C)cc1`, 528 nm.
Compound `C(=C\c1cc(/C=C/c2ccc(-n3c4ccccc4c4ccccc43)cc2)cc(/C=C/c2ccc(-n3c4ccccc4c4ccccc43)cc2)c1)/c1ccc(-n2c3ccccc3c3ccccc32)cc1` registered an emission maximum of 403 nm.

Still in this data set, the particulars now being: in CC#N.
Regarding `F[B-]1(F)n2cccc2C=C2c3ccccc3C(c3ccc[nH]3)=[N+]21`, the emission maximum is listed as 594 nm.
Consider `CC1=N/C(=C\c2ccc(C#N)c(N(C)C)c2)C(=O)N1C`, for which the emission maximum turned out to be 592 nm.
For `COC1=[N+]2C(=C(c3ccc(C)cc3)c3ccc(OC)n3[B-]2(F)F)C=C1`, the emission maximum is 522 nm.
Regarding `C(=C\c1cc(/C=C/c2ccc(-n3c4ccccc4c4ccccc43)cc2)cc(/C=C/c2ccc(-n3c4ccccc4c4ccccc43)cc2)c1)/c1ccc(-n2c3ccccc3c3ccccc32)cc1`, the emission maximum worked out at 429 nm.

The same data set, now with this note: in CC(C)=O.
`CCN(CC)c1ccc(-c2nc3c(nc2-c2ccc(B(c4c(C)cc(C)cc4C)c4c(C)cc(C)cc4C)cc2)c2ccccc2n3C)cc1` had an emission maximum of 544 nm.

The same data set, now with this note: in CCCCCC.
On to `F[B-]1(F)n2cccc2C=C2c3ccccc3C(c3ccc[nH]3)=[N+]21`, for which the emission maximum was determined as 588 nm.
`CC1=N/C(=C\c2ccc(C#N)c(N(C)C)c2)C(=O)N1C` had an emission maximum of 496 nm.
For the compound `COc1ccc(C#Cc2c3ccccc3c3n2[B-](F)(F)[N+]2=C(C)C=C(C)C2=C3)cc1`, the emission maximum came out at 620 nm.

Staying with this data set, now noted: in CCCCCCCCO
Consider `COc1ccc(C#Cc2c3ccccc3c3n2[B-](F)(F)[N+]2=C(C)C=C(C)C2=C3)cc1`, for which the emission maximum is on record as 629 nm.

Staying with this data set, now noted: in CCOC(C)=O.
With `COC1=[N+]2C(=C(c3ccc(C)cc3)c3ccc(OC)n3[B-]2(F)F)C=C1`, the emission maximum is 526 nm.
Still for that read-out and setting: then `COc1ccc(C#Cc2c3ccccc3c3n2[B-](F)(F)[N+]2=C(C)C=C(C)C2=C3)cc1`, with 623 nm.

The data set is the same for the next values; noted with them: in CN(C)C=O.
Consider `COc1ccc(C#Cc2c3ccccc3c3n2[B-](F)(F)[N+]2=C(C)C=C(C)C2=C3)cc1`, for which the emission maximum is 630 nm.

The same data set, now with this note: in CO.
The compound `F[B-]1(F)n2cccc2C=C2c3ccccc3C(c3ccc[nH]3)=[N+]21` had an emission maximum of 592 nm.
On to `COC1=[N+]2C(=C(c3ccc(C)cc3)c3ccc(OC)n3[B-]2(F)F)C=C1`, for which the emission maximum is 523 nm.

The data set is the same for the next values; noted with them: in CS(C)=O.
`COc1cc(OC)cc(C2=C3C(C)=C(I)C(/C=C/c4c[nH]c5ccccc45)=[N+]3[B-](F)(F)n3c(/C=C/c4c[nH]c5ccccc45)c(I)c(C)c32)c1` had an emission maximum of 771 nm.
In turn, `COc1cc(OC)cc(C2=C3C(C)=C(I)C(/C=C/c4c[nH]c5ccc([N+](=O)[O-])cc45)=[N+]3[B-](F)(F)n3c(/C=C/c4c[nH]c5ccc([N+](=O)[O-])cc45)c(I)c(C)c32)c1` gave an emission maximum of 748 nm.
Consider `CCN(CC)c1ccc(-c2nc3c(nc2-c2ccc(B(c4c(C)cc(C)cc4C)c4c(C)cc(C)cc4C)cc2)c2ccccc2n3C)cc1`, for which the emission maximum stood at 567 nm.

Staying with this data set, now noted: in Cc1ccccc1.
In the case of `F[B-]1(F)n2cccc2C=C2c3ccccc3C(c3ccc[nH]3)=[N+]21`, the emission maximum was 600 nm.
Same read-out and setting: in the case of `N#Cc1cc2ccc(cc2)c2cccc3cccc(c4ccc(cc4)cc(C#N)c4ccc(cc4)c4cccc5cccc(c6ccc1cc6)c54)c32` it was 496 nm.
Compound `Nc1nc(/C=C/c2ccc(N(c3ccccc3)c3ccccc3)cc2)cc(/C=C/c2ccc(N(c3ccccc3)c3ccccc3)cc2)n1` registered an emission maximum of 467 nm.
As to `COC1=[N+]2C(=C(c3ccc(C)cc3)c3ccc(OC)n3[B-]2(F)F)C=C1`, the emission maximum is on record as 530 nm.
Still for that read-out and setting: then `CCN(CC)c1ccc(-c2nc3c(nc2-c2ccc(B(c4c(C)cc(C)cc4C)c4c(C)cc(C)cc4C)cc2)c2ccccc2n3C)cc1`, with 493 nm; and `C(=C\c1cc(/C=C/c2ccc(-n3c4ccccc4c4ccccc43)cc2)cc(/C=C/c2ccc(-n3c4ccccc4c4ccccc43)cc2)c1)/c1ccc(-n2c3ccccc3c3ccccc32)cc1`, with 401 nm.

The data set is the same for the next values; noted with them: in ClC(Cl)Cl.
In the case of `c1ccc(-n2c(-c3ccc(-c4ccc5c(c4)C4(c6ccccc6-5)c5ccccc5-c5ccc(-c6ccc(-c7nc8ccccc8n7-c7ccccc7)cc6)c6cccc4c56)cc3)nc3ccccc32)cc1` (centres undefined), the emission maximum stood at 440 nm.
`Nc1nc(/C=C/c2ccc(N(c3ccccc3)c3ccccc3)cc2)cc(/C=C/c2ccc(N(c3ccccc3)c3ccccc3)cc2)n1` displayed an emission maximum of 526 nm.
On the same count and under the same terms, in the case of `CC(C)(C)c1ccc2oc3nc4oc5ccc(-n6c7ccccc7c7cc(-n8c9ccccc9c9ccccc98)ccc76)cc5c4cc3c2c1` it was 446 nm.
Take `COC1=[N+]2C(=C(c3ccc(C)cc3)c3ccc(OC)n3[B-]2(F)F)C=C1`: the emission maximum amounted to 529 nm.

The data set is the same for the next values; noted with them: in ClCCl.
`COc1cc(OC)cc(C2=C3C(C)=C(I)C(/C=C/c4c[nH]c5ccccc45)=[N+]3[B-](F)(F)n3c(/C=C/c4c[nH]c5ccccc45)c(I)c(C)c32)c1` yielded an emission maximum of 735 nm.
On the same count and under the same terms, in the case of `COc1cc(OC)cc(C2=C3C(C)=C(I)C(/C=C/c4c[nH]c5ccc([N+](=O)[O-])cc45)=[N+]3[B-](F)(F)n3c(/C=C/c4c[nH]c5ccc([N+](=O)[O-])cc45)c(I)c(C)c32)c1` it was 721 nm; in that of `F[B-]1(F)n2cccc2C=C2c3ccccc3C(c3ccc[nH]3)=[N+]21`, 599 nm.
For `CCOC(=O)/N=c1/oc2cc(OC)cc(OC)c2cc1C#N`, the emission maximum amounted to 442 nm.
The compound `COc1ccc(C#Cc2c3ccccc3c3n2[B-](F)(F)[N+]2=C(C)C=C(C)C2=C3)cc1` had an emission maximum of 633 nm.
Turning to `C(=C\c1cc(/C=C/c2ccc(-n3c4ccccc4c4ccccc43)cc2)cc(/C=C/c2ccc(-n3c4ccccc4c4ccccc43)cc2)c1)/c1ccc(-n2c3ccccc3c3ccccc32)cc1`, the emission maximum was determined as 419 nm.
